The test system of series [1] is NCI/ADR-RES multi-drug resistant ovarian cancer cell line. Put plainly: Tumor cell growth inhibition, crystal violet (Example 2). In kind it is cell-based. The following applies: Homo sapiens. The text has this:
(§1) In order to investigate the photolysis of the drugs in a system amenable to cell culture use, a custom UV irradiation apparatus was constructed, consisting of 3 small blacklight fluorescent bulbs (Southern New England Ultraviolet Co., λmax=350 nm) set between two ring stands and suspended at a height of 11.5 cm. The bulbs' housing was reflective aluminum so as to direct as much UV irradiation as possible downward toward the plate. Upon installation in sterile cell culture hood, the power of the system was measured at approximately 6-7 mW using a Scientech laser power meter. Prior to experimentation, the hood and irradiation apparatus was sterilized with 254 nm germicidal UV irradiation overnight. Using this setup, 100 μM of 4,5-dimethoxy-2-nitrobenyl alcohol (DMNA), photodoxazolidine R═H, and glucose-PEG-photodoxazoldine were irradiated in individual wells of a 24-well plate. Initially, 50 μL of a DMSO stock was diluted with 950 μL of PBS and aliquots of 50 μL were removed at various times (0-180 min), mixing by pipetting each time. The timepoints were analyzed by HPLC (method 2) and plotted as fractional conversion versus time. […] Therefore, a second experiment was performed in which the PBS was replaced with 1:1 acetonitrile:water. With this system of 5% DMSO/47.5% acetonitrile/47.5% water, no visible precipitation was produced over the course of the reaction.
(§2) The ovarian carcinoma line NCl/ADR-RES (ADR) was grown in high-glucose Dulbecco's Modified Eagle Medium (DMEM) supplemented with 10% fetal bovine serum (FBS), 200 units/mL of penicillin and 200 μg/mL of streptomycin. The breast carcinoma line MDA-MB-231 was cultured in low-glucose DMEM with the same additives. Both lines were maintained in a humidified incubator with 5% CO2/95% air at 37° C. UV irradiations were performed with the apparatus described above.
(§3) Growth inhibition experiments were performed by seeding cells into 96-well plates or 24-well plates at densities of 1000-1500 cells per well or 8000 cells per well, respectively, and allowing the cells to adhere overnight. The media was then replaced with a range of aqueous concentrations of the drug in question and allowed to incubate at 37° C. with the cells for a span of time (Inc1) which ranged from 1 min to 48 hours. Irradiation was performed at room temperature with the plate's lid removed and ranged from 1 to 30 min. In some experiments, the drug solution was removed following Inc1 and irradiated in clean media or PBS. Following irradiation, the cells were placed back into the 37° C. incubator for a second period of incubation (Inc2), which varied between 1 min and 24 h, prior to replacement with fresh media. Plates which received no irradiation but identical treatment otherwise were done in parallel. The cells were then grown until the no-drug control wells reached approximately 80% confluence or 5 days, whichever was shorter. […] The cells were fixed with 5% formalin in PBS, stained with crystal violet, washed with tap water, and air-dried. The stain was resolubilized in 50% isopropyl alcohol, 50% H2O containing 2% (w/v) SDS. The staining density was read on a multiwell plate reader at 588-600 nm. Percentage cell density was calculated relative to the irradiated no-drug control wells, plotted as a function of drug concentration, and fit using non-linear least squared analysis with a variable-slope dose response model in GraphPad Prism 5.0 software.
(§4) Although the introduction of a long-pass glass filter between the light source and the plate alleviated this effect to a small extent, a maximum irradiation time of 10 min was settled upon. […] Since a media change at that point would remove the cells as well, the re-adherence of the cell population was accomplished by the addition of a large volume (200 μL) of complete media following Inc2, and overnight incubation. Then, a full media change was done to remove the drug. […]

Series [2] relates to MDA-MB-231 breast cancer cells. Described as above. The format is cell-based, human. The following applies: Homo sapiens.
From the text: as §1, §2, §3, §4

For series [3] the following is noted: 37° C., pH 7.4; cited from earlier work.
Series [4] can be described thus: In vivo body weight change as indication of toxicity. The arrangement: species or system nude mice. The following applies: 4 mg/kg dox equivalent iv weekly x6; photodoxazolidine with 18-FDG ip. On the procedure:
For reconstitution for intravenous injection into mice, dry photodoxazolidine R═H (23 mg) was dissolved in 785 μL of DMSO for a final concentration of 34.5 mM, labeled “Drug Stock,” and stored dark at −20° C. Shortly before injection, the Drug Stock was thawed and 20-50 μL was transferred to a new tube. To this tube, 6 volumes (relative to the Drug Stock volume) of PEG-400 and 4 volumes of propylene glycol (PG) were added and the solution thoroughly mixed by vortexing. Immediately prior to injection, 9 volumes of saline (0.9% NaCl) was added to the DMSO/PEG/PG solution of photodoxazolidine and mixed by vortexing. […] Therefore, this formulation was used as prepared. This protocol produces a final formulation of 5% DMSO, 30% PEG-400, 20% PG, 45% saline. A standard injection of 100 μL of this formulation delivers 4 mg dox equivalent/kg body weight for a mouse weighing 0.025 kg.
Luciferase-positive MDA-MB-231 cells were maintained in MEM culture medium supplemented with 10% heat inactivated fetal bovine serum and 2% penicillin/streptomycin. Prior to injection, typsinized cell populations were counted with a Z1 Coulter Particle counter, centrifuged, and resuspended in Hank's Balanced Salt Solution (HBSS) at a concentration of 4.0×10^7 cells/mL. […] Body weight and tumor growth were measured regularly. Tumor growth was measured optically from the bioluminescence signal from injection of luciferin. […]

The test system of a further series is cancer cells. The conditions noted are these: cited from earlier work.

What is called IC50 is the concentration that gives 50% inhibition. By half-life is commonly meant the time in which the quantity being followed falls by half.

Where two headings read alike, the source gives them in different places.

With `COc1cccc2c1C(=O)c1c(O)c3c(c(O)c1C2=O)C[C@@](O)(C(=O)CO)C[C@@H]3O[C@H]1C[C@@H]2NCO[C@@H]2[C@H](C)O1` [Doxaz, doxazolidine, reference compound], the IC50 in series [1] (3 h) is 3 ± 0.2 nM; in series [2] (MDA-MB-231, 3 h), 5 to 10 nM. Also, in series [3], the half-life is reported as 3 min.

Turning to `COc1cccc2c1C(=O)c1c(O)c3c(c(O)c1C2=O)C[C@@](O)(C(=O)CO)C[C@@H]3O[C@H]1C[C@H](N)[C@H](O)[C@H](C)O1` [Dox, doxorubicin, reference compound], the half-inhibitory concentration (IC50) in series [1] (3 h treatment, read-out: IC50) worked out at 10000 nM; in series [2] (MDA-MB-231, 3 h treatment, read-out: IC50) it was 360 ± 30 nM. The body weight change result in series [4] is “significant weight loss”.

For `COc1cccc2c1C(=O)c1c(O)c3c(c(O)c1C2=O)C[C@@](O)(C(=O)CO)C[C@@H]3OC1CC2C(OCN2CN2COC3C(C)OC(O[C@H]4C[C@](O)(C(=O)CO)Cc5c(O)c6c(c(O)c54)C(=O)c4c(OC)cccc4C6=O)CC32)C(C)O1` (stereo partly shown) [DoxF], in the series on cancer cells, the “anti-tumor activity, fold above doxorubicin” value is given as “approximately 100 fold”.
